Positions of bridges follow the written chain, without caps; N, C: chain ends. Non-standard residues stand in square brackets, D forms with d. Residues, ends and D or L forms follow the SMILES beside them. *: point of attachment. hPhe(3-Cl-4-CF3) = N[C@@H](CCc1ccc(C(F)(F)F)c(Cl)c1)C(=O)O; Phe(3,5-Cl2) = N[C@@H](Cc1cc(Cl)cc(Cl)c1)C(=O)O; NMePhe(4-Cl) = CN[C@@H](Cc1ccc(Cl)cc1)C(=O)O; NMePhe(4-Me) = CN[C@@H](Cc1ccc(C)cc1)C(=O)O; hPhe(4-Cl) = N[C@@H](CCc1ccc(Cl)cc1)C(=O)O; NMeGly(cPent) = CN[C@H](C(=O)O)C1CCCC1; Phe(2-OMe) = COc1ccccc1C[C@H](N)C(=O)O; Phe(3-I) = N[C@@H](Cc1cccc(I)c1)C(=O)O; Phe(3-Me) = Cc1cccc(C[C@H](N)C(=O)O)c1; NMe3Pal = CN[C@@H](Cc1cccnc1)C(=O)O; NMeGly(cBu) = CN[C@H](C(=O)O)C1CCC1; NMeCha = CN[C@@H](CC1CCCCC1)C(=O)O; NMeChg = CN[C@H](C(=O)O)C1CCCCC1; NMeF = CN[C@@H](Cc1ccccc1)C(=O)O; NMeT = CN[C@H](C(=O)O)[C@@H](C)O; hPhe = N[C@@H](CCc1ccccc1)C(=O)O; N(CH2CH2)2CF2 = FC1(F)CCN(*)CC1; NMeD = CN[C@@H](CC(=O)O)C(=O)O; NMeL = CN[C@@H](CC(C)C)C(=O)O; Cba = N[C@@H](CC1CCC1)C(=O)O; NMeV = CN[C@H](C(=O)O)C(C)C; d(β3hA) = C[C@@H](N)CC(=O)O; NMeA = CN[C@@H](C)C(=O)O; NMeAib = CNC(C)(C)C(=O)O; Nle = CCCC[C@H](N)C(=O)O; Piperidide = C1CCN(*)CC1; Pyrrolidide = C1CCN(*)C1; Ac5c = NC1(C(=O)O)CCCC1; Aze = O=C(O)[C@@H]1CCN1; Thp = NC1(C(=O)O)CCOCC1; Abu = CC[C@H](N)C(=O)O; Aib = CC(C)(N)C(=O)O; Sar = CNCC(=O)O
molecular target: T1, Kras and SOS1 (biotin-tagged human Kras loaded with GDP, His-tagged human SOS1) (Homo sapiens, UniProt P01116, G12D); assay: Protein-protein interaction inhibition between Kras and SOS1 (KrasGl2D-SOS PPI) using AlphaScreen; format: binding; details: AlphaScreen; biotin-tagged human Kras loaded with GDP, His-tagged human SOS1; read-out: KRAS G12D-SOS PPI IC50
T1 construct: made in house; host or cells: E. coli (stated for Kras only)
T1 sequence (P01116 1-188 isoform P01116-2 G12D): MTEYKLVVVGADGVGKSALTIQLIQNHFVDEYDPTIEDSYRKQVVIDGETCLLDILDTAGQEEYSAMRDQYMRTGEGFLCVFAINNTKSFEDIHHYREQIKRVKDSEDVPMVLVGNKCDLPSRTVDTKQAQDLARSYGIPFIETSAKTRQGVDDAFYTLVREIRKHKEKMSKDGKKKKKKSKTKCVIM
How it was run: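 Binding between SOS1 and Kras is detected as bead-proximity luminescence: illuminate Ni-conjugated donors (680 nm), collect 520-620 nm emission from streptavidin-conjugated acceptors; Kras carries biotin and GDP loaded after purification, SOS1 carries a His tag.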

| Structure (SMILES) | IC50 [µM] |
| --- | --- |
| CC[C@H](C)[C@@H]1NC(=O)[C@H](CC(C)C)N(C)C(=O)C[C@@H](C(=O)N2CCCCC2)N(C)C(=O)[C@H](C2CCCCC2)N(C)C(=O)C2(CCCC2)NC(=O)[C@@H]2CCCN2C(=O)[C@H](CCc2ccc(C(F)(F)F)c(Cl)c2)NC(=O)CN(C)C(=O)[C@H]([C@@H](C)O)N(C)C(=O)CN(C)C(=O)CN(C)C1=O [Compound 427] ([NMeL]I[Sar][Sar][NMeT][Sar][hPhe(3-Cl-4-CF3)]P[Ac5c][NMeChg][NMeD]-Piperidide; lactam N-11) | 0.00071 |
| CC[C@H](C)[C@@H]1NC(=O)[C@H](C)N(C)C(=O)C[C@@H](C)NC(=O)[C@H](C2CCCC2)N(C)C(=O)C2(CCCC2)NC(=O)[C@@H]2CCCN2C(=O)[C@H](CCc2ccc(C(F)(F)F)c(Cl)c2)NC(=O)CN(C)C(=O)[C@H](CC(C)C)N(C)C(=O)[C@@H]2CCCN2C(=O)CN(C)C1=O [Compound 429] (cyclo([Ac5c][NMeGly(cPent)][d(β3hA)][NMeA]I[Sar]P[NMeL][Sar][hPhe(3-Cl-4-CF3)]P)) | 0.099 |
| CCCC[C@@H]1NC(=O)[C@H](Cc2cc(Cl)cc(Cl)c2)NC(=O)CN(C)C(=O)[C@H](Cc2ccc(Cl)cc2)N(C)C(=O)CN(C)C(=O)CN(C)C(=O)[C@H]([C@@H](C)CC)NC(=O)[C@H](CC(C)C)N(C)C(=O)C[C@@H](C(=O)N2CCCCC2)N(C)C(=O)[C@H](CC(C)C)NC(=O)C(C)(C)N(C)C1=O [Compound 431] ([NMeL]I[Sar][Sar][NMePhe(4-Cl)][Sar][Phe(3,5-Cl2)][Nle][NMeAib]L[NMeD]-Piperidide; lactam N-11) | 0.25 |
| CC[C@H](C)[C@@H]1NC(=O)[C@H](C)N(C)C(=O)C[C@@H](C(=O)N2CCCCC2)N(C)C(=O)[C@H](C2CCCCC2)N(C)C(=O)C2(CCCC2)NC(=O)[C@H](Cc2cccnc2)N(C)C(=O)[C@H](CCc2ccc(C(F)(F)F)c(Cl)c2)NC(=O)CN(C)C(=O)[C@H](CC2CCCCC2)N(C)C(=O)[C@@H]2CCCN2C(=O)CN(C)C1=O [Compound 433] ([NMeA]I[Sar]P[NMeCha][Sar][hPhe(3-Cl-4-CF3)][NMe3Pal][Ac5c][NMeChg][NMeD]-Piperidide; lactam N-11) | 0.0022 |
| CC[C@H](C)[C@@H]1NC(=O)[C@H](CC(C)C)N(C)C(=O)C[C@@H](C(=O)N2CCCCC2)N(C)C(=O)[C@H](CC(C)C)NC(=O)C(C)(C)N(C)C(=O)[C@H](CCc2ccccc2)NC(=O)[C@H](Cc2cccc(I)c2)NC(=O)CN(C)C(=O)[C@H](Cc2ccc(C)cc2)N(C)C(=O)[C@@H]2CCN2C(=O)CN(C)C1=O [Compound 442] ([NMeL]I[Sar][Aze][NMePhe(4-Me)][Sar][Phe(3-I)][hPhe][NMeAib]L[NMeD]-Piperidide; lactam N-11) | 0.07 |
| CC[C@H](C)[C@@H]1NC(=O)[C@H](CC(C)C)N(C)C(=O)C[C@@H](C(=O)N2CCCCC2)N(C)C(=O)[C@H](C(C)C)N(C)C(=O)[C@H](C)NC(=O)[C@H](CC(=O)N2CCC(F)(F)CC2)N(C)C(=O)[C@H](CCc2ccc(C(F)(F)F)c(Cl)c2)NC(=O)CN(C)C(=O)[C@H](CC2CCCCC2)N(C)C(=O)CN(C)C(=O)CN(C)C1=O [Compound 444] ([NMeL]I[Sar][Sar][NMeCha][Sar][hPhe(3-Cl-4-CF3)][NMeD](N(CH2CH2)2CF2)A[NMeV][NMeD]-Piperidide; lactam N-11) | 0.018 |
| CC[C@H](C)[C@@H]1NC(=O)[C@H](C)N(C)C(=O)C[C@@H](C(=O)N2CCCCC2)N(C)C(=O)[C@H](C(C)C)N(C)C(=O)C2(CCCC2)NC(=O)[C@@H]2CCCN2C(=O)[C@H](CCc2ccc(C(F)(F)F)c(Cl)c2)NC(=O)[C@H]2CCCN2C(=O)[C@H](CC2CCCCC2)N(C)C(=O)[C@@H]2CCN2C(=O)CN(C)C1=O [Compound 447] ([NMeA]I[Sar][Aze][NMeCha][dP][hPhe(3-Cl-4-CF3)]P[Ac5c][NMeV][NMeD]-Piperidide; lactam N-11) | 0.014 |
| CC[C@H](C)[C@@H]1NC(=O)[C@H](CC(C)C)N(C)C(=O)C[C@@H](C(=O)N2CCCCC2)N(C)C(=O)[C@H](C(C)C)N(C)C(=O)C2(CCOCC2)NC(=O)[C@@H]2CCCN2C(=O)[C@H](CCc2ccc(Cl)cc2)NC(=O)CN(C)C(=O)[C@H](CC2CCCCC2)N(C)C(=O)CN(C)C(=O)CN(C)C1=O [Compound 448] ([NMeL]I[Sar][Sar][NMeCha][Sar][hPhe(4-Cl)]P[Thp][NMeV][NMeD]-Piperidide; lactam N-11) | 0.091 |
| CC(C)C[C@H]1C(=O)N[C@@H](CC2CCC2)C(=O)N(C)CC(=O)N(C)CC(=O)N(C)[C@@H](CC2CCCCC2)C(=O)N(C)CC(=O)N[C@@H](CCc2ccc(C(F)(F)F)c(Cl)c2)C(=O)N2CCC[C@H]2C(=O)NC2(CCCC2)C(=O)N(C)[C@@H](C(C)C)C(=O)N(C)[C@H](C(=O)N2CCCCC2)CC(=O)N1C [Compound 451] ([NMeL][Cba][Sar][Sar][NMeCha][Sar][hPhe(3-Cl-4-CF3)]P[Ac5c][NMeV][NMeD]-Piperidide; lactam N-11) | 0.01 |
| CC[C@@H]1NC(=O)[C@H](Cc2cccc(I)c2)NC(=O)CN(C)C(=O)[C@H](Cc2ccc(Cl)cc2)N(C)C(=O)CN(C)C(=O)CN(C)C(=O)[C@H]([C@@H](C)CC)NC(=O)[C@H](CC(C)C)N(C)C(=O)C[C@@H](C(=O)N2CCCCC2)N(C)C(=O)[C@H](CC(C)C)NC(=O)C(C)(C)N(C)C1=O [Compound 457] ([NMeL]I[Sar][Sar][NMePhe(4-Cl)][Sar][Phe(3-I)][Abu][NMeAib]L[NMeD]-Piperidide; lactam N-11) | 0.069 |
| CC[C@H](C)[C@@H]1NC(=O)[C@H](CC(C)C)N(C)C(=O)C[C@@H](C(=O)N2CCCCC2)N(C)C(=O)[C@H](CC(C)C)NC(=O)C(C)(C)N(C)C(=O)[C@H](Cc2ccccc2OC)NC(=O)[C@H](Cc2cccc(I)c2)NC(=O)CN(C)C(=O)[C@H](Cc2ccc(C)cc2)N(C)C(=O)[C@@H]2CCN2C(=O)CN(C)C1=O [Compound 459] ([NMeL]I[Sar][Aze][NMePhe(4-Me)][Sar][Phe(3-I)][Phe(2-OMe)][NMeAib]L[NMeD]-Piperidide; lactam N-11) | 0.0095 |
| CC[C@H](C)[C@@H]1NC(=O)[C@H](CC(C)C)N(C)C(=O)C[C@@H](C(=O)N2CCCCC2)N(C)C(=O)[C@H](C(C)C)N(C)C(=O)C(C)(C)NC(=O)[C@H](CC(=O)N2CCC(F)(F)CC2)N(C)C(=O)[C@H](CCc2ccc(C(F)(F)F)c(Cl)c2)NC(=O)CN(C)C(=O)[C@H](CC2CCCCC2)N(C)C(=O)CN(C)C(=O)CN(C)C1=O [Compound 463] ([NMeL]I[Sar][Sar][NMeCha][Sar][hPhe(3-Cl-4-CF3)][NMeD](N(CH2CH2)2CF2)[Aib][NMeV][NMeD]-Piperidide; lactam N-11) | 0.0044 |
| CC[C@H](C)[C@@H]1NC(=O)[C@H](C2CCC2)N(C)C(=O)C[C@@H](C)NC(=O)[C@H](C(C)C)N(C)C(=O)C2(CCCC2)NC(=O)[C@@H]2CCCN2C(=O)[C@H](CCc2ccc(C(F)(F)F)c(Cl)c2)NC(=O)CN(C)C(=O)[C@H](CC2CCCCC2)N(C)C(=O)[C@@H]2CCN2C(=O)[C@H](C)N(C)C1=O [Compound 465] (cyclo([Ac5c][NMeV][d(β3hA)][NMeGly(cBu)]I[NMeA][Aze][NMeCha][Sar][hPhe(3-Cl-4-CF3)]P)) | 0.055 |
| CC[C@H](C)[C@@H]1NC(=O)[C@H](C)N(C)C(=O)C[C@@H](C(=O)N2CCCC2)NC(=O)[C@H](C(C)C)N(C)C(=O)[C@H](Cc2ccccc2)N(C)C(=O)[C@H](Cc2ccccc2)NC(=O)[C@H](Cc2cccc(C)c2)NC(=O)CN(C)C(=O)[C@H](Cc2ccc(Cl)cc2)N(C)C(=O)CN(C)C(=O)CN(C)C1=O [Compound 467] ([NMeA]I[Sar][Sar][NMePhe(4-Cl)][Sar][Phe(3-Me)]F[NMeF][NMeV]D-Pyrrolidide; lactam N-11) | 0.2 |
